Assay [1] relates to HCT-116. As to the kind of experiment: Induction of apoptosis in human HCT116 cells assessed as accumulation of cleaved caspase-7 at 10 uM after 48 hrs by Western blot analysis. It counts as functional, cell-based. A general note: A western blot detects proteins with antibodies after separation by electrophoresis.
Assay [2] deals with HCT-116. As to the kind of experiment: Anticlonogenic activity against human HCT116 cells at 2 uM after 7 days using crystal violet staining. It counts as functional.
Assay [3] concerns HCT-116. As to the kind of experiment: Induction of apoptosis in human HCT116 cells assessed as increase in cleaved PARP level at 10 uM by Western blot analysis. It counts as functional, cell-based. Conditions: TDE = time-dependent effect.
Assay [4] has as its system HCT-116. As to the kind of experiment: Induction of apoptosis in human HCT116 cells assessed as fragmented nuclei at 10 uM after 48 hrs by fluorescence microscopy method. It is filed as functional, cell-based.
For assay [5], the system named is HCT-116. Kind of assay: Antiproliferative activity against human HCT116 cells assessed as cell growth inhibition after 12 to 48 hrs by WST-8 assay. It counts as functional, cell-based.
The subject of assay [6] is HCT-116. As to the kind of experiment: Induction of apoptosis in human HCT116 cells assessed as condensed chromatin at 10 uM after 48 hrs by fluorescence microscopy method. It is filed as functional, cell-based.
In assay [7] the test system is HCT-116. As to the kind of experiment: Antiproliferative activity against human HCT116 cells assessed as cell growth inhibition at 10 to 40 uM by WST-8 assay. It is filed as functional, cell-based. Conditions: TDE = time-dependent effect. (Tetrazolium assays rely on reduction of a dye to a coloured formazan, in cell work by metabolically active cells.)
The subject of assay [8] is HCT-116. Kind of assay: Induction of apoptosis in human HCT116 cells assessed as shrunken nuclei at 10 uM after 48 hrs by fluorescence microscopy method. It counts as functional, cell-based.

Activity calls are given as the source filed them. The calls are words filed in the database; no cut-off is given here.

`COc1cc2c(c(OC)c1OC)-c1c(cc3c(c1OC)OCO3)C[C@H](C)[C@](C)(O)C2`: the outcome in the assay on HCT-116 [1] was Active.
As for `COc1cc2c(c(OC)c1OC)-c1c(cc3c(c1OC)OCO3)C[C@@H](C)[C@](C)(O)C2`, the Activity is 50% in the assay on HCT-116 [2] and “tde” in the assay with HCT-116 [3]. The result in the assay on HCT-116 [4], in the assay on HCT-116 [6], with HCT-116 [8] and in the assay on HCT-116 [1] was Active. In addition, the “growth inhibition (GI)” value with HCT-116 [5] is “Dose-dependent effect”; in the assay with HCT-116 [7], “tde”.
